Data from ChEMBL document CHEMBL4673290, “Diazaspirononane Nonsaccharide Inhibitors of O-GlcNAcase (OGA) for the Treatment of Neurodegenerative Disorders” (J Med Chem, 2020).

Assay: Selectivity ratio of IC50 for inhibition of clostridium perfringens OGA to IC50 for Inhibition of human recombinant full-length OGA transcript variant 1 expressed in HEK293T cells
Format: cell-based

Row | Structure (SMILES) | Ratio IC50
1 | CC(=O)Nc1ncc(CN2CCC3(CCN(c4cc(C)nc5ncnn45)C3)C2)s1 (configuration not stated) | 100
2 | CC(=O)Nc1ncc(CN2CC3(CCN(c4cc(C)nc5ncnn45)C3)C2)s1 | 100
